Test results taken from PubChem BioAssay (NCI).
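48-hour exposure; five concentrations; linearly interpolated endpoints. GI50 is the concentration that inhibits growth by half. TGI marks complete inhibition of growth.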

Columns and labels:
Assay in all cases: NCI tumour cell line growth inhibition, 48 h
EKVX NSCLC = test system: EKVX NSCLC
NCI-H23 lung = test system: NCI-H23 lung
MOLT-4 leukemia = test system: MOLT-4 leukemia
OVCAR-3 ovarian = test system: OVCAR-3 ovarian
HOP-62 NSCLC = test system: HOP-62 NSCLC
UO-31 renal = test system: UO-31 renal
T-47D breast = test system: T-47D breast
ACHN renal = test system: ACHN renal
HCT-116 colon = test system: HCT-116 colon
SR leukemia = test system: SR leukemia
NCI-H460 lung = test system: NCI-H460 lung
SNB-19 CNS = test system: SNB-19 CNS
SK-MEL-5 melanoma = test system: SK-MEL-5 melanoma
RXF 393 renal = test system: RXF 393 renal
A498 renal = test system: A498 renal
OVCAR-4 ovarian = test system: OVCAR-4 ovarian
MALME-3M melanoma = test system: MALME-3M melanoma
SF-295 CNS = test system: SF-295 CNS
OVCAR-8 ovarian = test system: OVCAR-8 ovarian
UACC-62 melanoma = test system: UACC-62 melanoma
CAKI-1 renal = test system: CAKI-1 renal
COLO 205 colon = test system: COLO 205 colon
MDA-MB-231 breast = test system: MDA-MB-231 breast
IGROV1 ovarian = test system: IGROV1 ovarian
HOP-92 NSCLC = test system: HOP-92 NSCLC
UACC-257 melanoma = test system: UACC-257 melanoma
K-562 leukemia = test system: K-562 leukemia
SNB-75 CNS = test system: SNB-75 CNS

CC[C@@]12CC(C(=O)OC)=C3Nc4ccccc4[C@@]34CCN(C[C@H]3O[C@H]31)[C@@H]24
GI50 (EKVX NSCLC): 40.2 µM
TGI (EKVX NSCLC): > 100 µM
GI50 (NCI-H23 lung): 60.7 µM
TGI (NCI-H23 lung): > 100 µM
GI50 (MOLT-4 leukemia): 27.9 µM
TGI (MOLT-4 leukemia): > 100 µM
GI50 (OVCAR-3 ovarian): 78.5 µM
TGI (OVCAR-3 ovarian): > 100 µM
GI50 (HOP-62 NSCLC): 94.9 µM
TGI (HOP-62 NSCLC): > 100 µM
GI50 (UO-31 renal): 34.9 µM
TGI (UO-31 renal): > 100 µM
GI50 (T-47D breast): 27.5 µM
TGI (T-47D breast): > 100 µM
GI50 (ACHN renal): > 100 µM
TGI (ACHN renal): > 100 µM
GI50 (HCT-116 colon): 43.8 µM
TGI (HCT-116 colon): > 100 µM
GI50 (SR leukemia): 24 µM
TGI (SR leukemia): > 100 µM
GI50 (NCI-H460 lung): 46.6 µM
TGI (NCI-H460 lung): > 100 µM
GI50 (SNB-19 CNS): 16.1 µM
TGI (SNB-19 CNS): 30.7 µM
GI50 (SK-MEL-5 melanoma): 21.2 µM
TGI (SK-MEL-5 melanoma): 57.7 µM
GI50 (RXF 393 renal): 26.4 µM
TGI (RXF 393 renal): > 100 µM
GI50 (A498 renal): 27.5 µM
TGI (A498 renal): > 100 µM
GI50 (OVCAR-4 ovarian): 82.5 µM
TGI (OVCAR-4 ovarian): > 100 µM
GI50 (MALME-3M melanoma): 30.5 µM
TGI (MALME-3M melanoma): > 100 µM
GI50 (SF-295 CNS): 36.7 µM
TGI (SF-295 CNS): > 100 µM
GI50 (OVCAR-8 ovarian): > 100 µM
TGI (OVCAR-8 ovarian): > 100 µM
GI50 (UACC-62 melanoma): 17.7 µM
TGI (UACC-62 melanoma): > 100 µM
GI50 (CAKI-1 renal): 36.9 µM
TGI (CAKI-1 renal): > 100 µM
GI50 (COLO 205 colon): 34.4 µM
TGI (COLO 205 colon): > 100 µM
GI50 (MDA-MB-231 breast): 47.6 µM
TGI (MDA-MB-231 breast): > 100 µM
GI50 (IGROV1 ovarian): 52.3 µM
TGI (IGROV1 ovarian): > 100 µM
GI50 (HOP-92 NSCLC): 17.7 µM
TGI (HOP-92 NSCLC): > 100 µM
GI50 (UACC-257 melanoma): 66.7 µM
TGI (UACC-257 melanoma): > 100 µM
GI50 (K-562 leukemia): 23.2 µM
TGI (K-562 leukemia): > 100 µM
GI50 (SNB-75 CNS): 14.8 µM
TGI (SNB-75 CNS): 64.9 µM
